Reference: US12583855B2, “RET selective inhibitor, preparation method therefor and use thereof” (SHOUYAO HOLDINGS (BEIJING) CO., LTD., priority 2019, dated 2026)
Positions count from the first letter of the chain named.

Key:
[1] = molecular target: VEGFR2 (Homo sapiens, UniProt P35968); test: In vitro enzymatic activity assay on VEGFR2 (HTRF); type: biochemical; settings: GST-VEGFR2 0.1 nM, ATP 2.5 μM
Outline: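 GST-VEGFR2 (0.1 nM final) with 2.5 μM ATP and 1 μM TK peptide substrate in HEPES pH 7.5 buffer with Mg²⁺/Mn²⁺, 1.5 h at 23 °C. HTRF read-out (665/620 nm ratio) after adding TK antibody and streptavidin-XL665. IC50 from 7-point, 5-fold dilution series.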

[2] = system: KIF5B-RET/HEK293T cells; test: Cell proliferation activity in KIF5B-RET/HEK293T cells (Cell-Titer Glo); type: cell-based; settings: Homo sapiens, HEK-293T, 72 h, read-out: KIFSB-RETV^804M/293T (Cell)IC50
[3] = molecular target: T1, RET^V804M (Homo sapiens, UniProt P07949, V804M); test: In vitro enzymatic activity assay on RET^V804M (HTRF); type: biochemical; settings: GST-RET^V804M (658-1114 aa) 0.02 nM, ATP 1.5 μM
T1 construct: GST-RET^V804M (658-1114 aa, final concentration of 0.02 nM)
T1 sequence (P07949 658-1114 V804M): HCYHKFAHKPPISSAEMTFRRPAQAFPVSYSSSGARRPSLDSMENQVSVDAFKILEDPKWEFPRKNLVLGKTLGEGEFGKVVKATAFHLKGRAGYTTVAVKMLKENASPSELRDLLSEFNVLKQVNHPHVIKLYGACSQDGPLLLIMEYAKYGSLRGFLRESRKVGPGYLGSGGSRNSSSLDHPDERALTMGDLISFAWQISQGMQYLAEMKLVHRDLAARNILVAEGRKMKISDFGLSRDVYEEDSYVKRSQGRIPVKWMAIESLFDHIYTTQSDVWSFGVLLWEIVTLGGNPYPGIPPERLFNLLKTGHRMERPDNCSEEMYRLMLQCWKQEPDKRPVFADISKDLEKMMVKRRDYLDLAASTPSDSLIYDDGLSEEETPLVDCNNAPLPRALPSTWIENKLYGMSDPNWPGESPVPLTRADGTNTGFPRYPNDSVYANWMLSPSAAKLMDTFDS

[4] = molecular target: T2, RET^WT (Homo sapiens, UniProt P07949); test: In vitro enzymatic activity assay on RET^WT (HTRF); type: biochemical; settings: GST-RET^WT (658-1114 aa) 0.5 nM, ATP 25 μM
T2 construct: GST-RET^WT (658-1114 aa, final concentration of 0.5 nM)
T2 sequence (P07949 658-1114): T1 sequence (P07949 658-1114 V804M) with M147V
Outline: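 Reaction run 2 h at 23 °C in HEPES pH 7.5 buffer with Na3VO4, MgCl2, DTT, Tween 20 and BSA; compounds tested at 7 concentrations (5-fold serial dilution in DMSO from 0.2 mM stock). HTRF detection with TK antibody and streptavidin-XL665; IC50 from curve fitting.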

[5] = system: TT cells; test: TT cell proliferation activity (Cell-Titer Glo); type: cell-based; settings: TT human thyroid carcinoma cells, 120 h
Procedure: 4. Determination of TT Cell Proliferation Activity of Compounds
TT cells, a human thyroid carcinoma cell line, were cultured in Ham's F-12K medium supplemented with 15% fetal bovine serum (FBS, purchased from Biological Industries, BI) and 1% penicillin/streptomycin double antibody (P/S, purchased from Life Technology) under conditions of 37° C. and 5% CO2. TT cells were plated in a 96-well plate (#3917 purchased from Corning) at a concentration of 5000 cells/195 μL/well the day before compound was detected. The compounds were diluted 3-fold with 100% DMSO starting from 10 mM (10 concentrations in total) after 24 h, and 2 μL of each concentration was diluted in 48 μL of Ham's F-12K medium. 5 μL of each diluted compound was added to the plated Cell suspension, the compound and cells were co-incubated in a cell incubator for 120 h (5 days), after the medium was aspirated. 25 μL of Cell-Titer Glo (G7570, purchased from Promega) reagent was added and re-incubated for 5-10 min. Fluorescence value was then read on Envision and the data were calculated using GraphPad Prism software to obtain IC50 values for inhibition of cell proliferation by the compounds.

[6] = Pharmacokinetic data of compounds in male SD rats; type: in vivo; settings: rat, po, intragastric, 5 mg/kg, suspension MC 0.5%, plasma
Procedure: 6. Pharmacokinetic Data of Compounds
Male SD rats (Beijing Vital River Laboratory Animal Technology Co., Ltd) were divided into groups. 3 in each group, received intragastric administration with the suspension of the test sample (5 mg/kg, suspensions MC 0.5%), respectively. Animals were fasted overnight prior to the experiment from 10 h before dosing to 4 h after dosing. Blood was collected 0.25, 0.5, 1, 2, 4, 6, 8, and 24 h after administration, respectively. After isoflurane anesthesia using a small animal anesthesia machine, 0.3 mL of whole blood samples was taken through the fundus venous plexus, placed in a heparin anticoagulant tube, and were centrifuged at 4° C. 4000 rpm for 5 min plasma was transferred to the centrifuge tube, and stored at −80° C. until analysis. Samples in the plasma were extracted using protein precipitation and the extracts were analyzed by LC/MS.

VEGFR2, sequence (P35968 20-1356): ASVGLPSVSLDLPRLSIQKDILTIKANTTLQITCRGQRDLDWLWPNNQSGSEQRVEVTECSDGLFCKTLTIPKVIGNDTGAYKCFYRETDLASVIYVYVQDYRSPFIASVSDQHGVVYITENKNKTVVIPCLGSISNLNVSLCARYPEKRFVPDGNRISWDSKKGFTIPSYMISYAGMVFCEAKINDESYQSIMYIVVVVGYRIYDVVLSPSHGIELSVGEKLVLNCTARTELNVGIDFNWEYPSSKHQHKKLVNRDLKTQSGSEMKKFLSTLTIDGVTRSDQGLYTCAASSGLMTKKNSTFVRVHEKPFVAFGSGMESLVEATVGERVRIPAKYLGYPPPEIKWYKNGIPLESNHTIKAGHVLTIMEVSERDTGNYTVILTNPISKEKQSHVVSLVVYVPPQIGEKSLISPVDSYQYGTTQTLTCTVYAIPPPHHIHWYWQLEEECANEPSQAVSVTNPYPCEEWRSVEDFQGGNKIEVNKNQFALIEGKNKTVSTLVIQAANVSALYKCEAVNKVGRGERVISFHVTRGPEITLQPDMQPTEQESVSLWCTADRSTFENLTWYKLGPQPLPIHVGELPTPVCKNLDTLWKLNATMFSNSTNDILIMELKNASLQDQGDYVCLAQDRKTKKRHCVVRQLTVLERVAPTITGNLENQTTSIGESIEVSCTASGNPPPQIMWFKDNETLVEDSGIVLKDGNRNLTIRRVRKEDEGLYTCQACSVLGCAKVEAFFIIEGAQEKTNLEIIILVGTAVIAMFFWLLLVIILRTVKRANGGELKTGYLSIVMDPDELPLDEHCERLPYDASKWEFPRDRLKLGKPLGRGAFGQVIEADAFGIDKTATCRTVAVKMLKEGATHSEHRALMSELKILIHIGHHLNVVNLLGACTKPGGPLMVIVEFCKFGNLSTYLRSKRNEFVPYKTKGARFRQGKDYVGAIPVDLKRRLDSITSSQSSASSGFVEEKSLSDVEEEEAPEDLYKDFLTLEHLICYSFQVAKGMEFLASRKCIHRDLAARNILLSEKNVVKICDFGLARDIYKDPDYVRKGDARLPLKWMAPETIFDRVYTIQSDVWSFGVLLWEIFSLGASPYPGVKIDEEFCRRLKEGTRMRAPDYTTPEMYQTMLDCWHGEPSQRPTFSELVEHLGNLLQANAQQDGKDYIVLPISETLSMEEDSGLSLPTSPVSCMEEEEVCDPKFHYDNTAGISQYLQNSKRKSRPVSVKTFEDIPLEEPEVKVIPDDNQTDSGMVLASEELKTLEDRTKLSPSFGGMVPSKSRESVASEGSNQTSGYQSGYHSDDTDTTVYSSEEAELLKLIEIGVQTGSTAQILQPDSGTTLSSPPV

SMILES	IC50 [1]	IC50 [2]	IC50 [3]	IC50 [4]	IC50 [5]	AUC(0-inf) [6]	Cmax [6]	Tmax [6]	half-life [6]
CSc1cc(CN2C3CC2CN(c2ccc(-c4cc(-c5cnn(C(F)F)c5)cn5ncc(C#N)c45)cn2)C3)ccn1 [Example 72, 6-(1-(difluoromethyl)-1Hpyrazol-4-yl)-4-(6(6-((2-(methylthio)pyridin-4-yl)methyl)-3,6-diazabicyclo[3.1.1]heptan-3-yl)pyridin-3-yl)pyrazolo[1,5-a]pyridine-3-carbonitrile]	7.74 nM	387 nM	0.735 nM	0.147 nM	24.9 nM				
Cn1cc(-c2cc(-c3ccc(N4CC5CC(C4)N5Cc4ccc(S(C)(=O)=O)cc4)nc3)c3c(C#N)cnn3c2)cn1 [Example 25, 6-(1-methyl-1Hpyrazol-4-yl)-4-(6-(6-(4-(methylsulfonyl)benzyl)-3,6-diazabicyclo[3.1.1]heptan-3-yl)pyridin-3-yl)pyrazolo[1,5-a]pyridine-3-carbonitrile]		146 nM	0.236 nM	0.148 nM	5.96 nM				
CSc1ccc(CN2C3CC2CN(c2ccc(-c4cc(-c5cnn(C(F)F)c5)cn5ncc(C#N)c45)cn2)C3)cn1 [Example 60, 6-(1-(difluoromethyl)-1Hpyrazol-4-yl)-4-(6-(6-((6-(methylthio)pyridin-3-yl)methyl)-3,6-diazabicyclo[3.1.1]heptan-3-yl)pyridin-3-yl)pyrazolo[1,5-a]pyridine-3-carbonitrile]	3.1 nM	281 nM	0.593 nM	0.103 nM	18.5 nM	14700 ng·h/mL	1140 ng/mL	1.5 h	7.45 h
CSc1ccc(CN2CCN(c3ccc(-c4cc(-c5cnn(C)c5)cn5ncc(C#N)c45)cn3)CC2)nc1 [Example 9, 6-(1-methyl-1Hpyrazol-4-yl)-4(6-(4-((5-(methylthio)pyridin-2-yl)methyl)piperazin-1-yl)pyridin-3-yl)pyrazolo[1,5-a]pyridine-3-carbonitrile]	10 nM	371 nM	1.22 nM	0.565 nM	37.3 nM	8290 ng·h/mL	1660 ng/mL	2.17 h	2.02 h
Cn1cc(-c2cc(-c3ccc(N4CC5CC(C4)N5Cc4cccc(S(C)(=O)=O)c4)nc3)c3c(C#N)cnn3c2)cn1 [Example 20, 6-(1-methyl-1Hpyrazol-4-yl)-4-(6-(6-(3-(methylsulfonyl)benzyl)-3,6-diazabicyclo[3.1.1]heptan-3-yl)pyridin-3-yl)pyrazolo[1,5-a]pyridine-3-carbonitrile]	6.44 nM	146 nM	0.237 nM	0.092 nM	6.58 nM				
CS(=O)(=O)c1ccc(CN2C3CC2CN(c2ccc(-c4cc(-c5cnn(C(F)F)c5)cn5ncc(C#N)c45)cn2)C3)cc1 [Example 45, 6-(1-difluoromethyl-1Hpyrazol-4-yl)-4-(6-(6-(4-(methylsulfonyl)benzyl)-3,6-diazabicyclo[3.1.1]heptan-3-yl)pyridin-3-yl) pyrazolo[1,5-a] pyridine-3-carbonitrile]	4.96 nM		0.822 nM	0.159 nM	22.7 nM	27500 ng·h/mL	3560 ng/mL	1.83 h	3.21 h
CC1(O)CN(c2cc(-c3ccc(N4CC5CC(C4)N5Cc4cccc(S(C)(=O)=O)c4)nc3)c3c(C#N)cnn3c2)C1 [Example 65, 6-(3-hydroxy-3-methylazetidin-1-yl)-4-(6-(6-(3-(methylsulfonyl)benzyl)-3,6-diazabicyclo[3.1.1]heptan-3-yl)pyridin-3-yl)pyrazolo[1,5-a]pyridine-3-carbonitrile]	19.4 nM	349 nM	1.85 nM	0.67 nM	24.1 nM				
CSc1ccc(CN2CCN(c3ccc(-c4cc(-c5cnn(C)c5)cn5ncc(C#N)c45)cn3)CC2)cc1 [Example 17, 6-(1-methyl-1Hpyrazol-4-yl)-4-(6-(4-(4-(methylthio)benzyl)piperazin-1-yl)pyridin-3-yl)pyrazolo[1,5-a]pyridine-3-carbonitrile]	14.1 nM	394 nM							
COc1ccc(CN2C3CC2CN(c2ccc(-c4cc(N5CC(C)(O)C5)cn5ncc(C#N)c45)cn2)C3)cn1 [Example 7, 6-(3-hydroxy-3-methylazetidin-1-yl)-4-(6-(6-((6-methoxypyridin-3-yl)methyl)-3,6-diazabicyclo[3.1.1]heptan-3-yl)pyridin-3-yl)pyrazolo[1,5-a]pyridine-3-carbonitrile]	9.67 nM	99.1 nM		0.601 nM	7.41 nM	12600 ng·h/mL	1460 ng/mL	2 h	3.53 h
CN(C)C(=S)N1CCN(c2ccc(-c3cc(-c4cnn(C)c4)cn4ncc(C#N)c34)cn2)CC1 [Example 8, 4-(5-(3-cyano-6-(1-methyl-1Hpyrazol-4-yl)pyrazolo[1,5-a]pyridine-4-yl)pyridin-2-yl)-N,N-dimethylpiperazin-1-carbothioamide]	9.15 nM	162 nM	0.908 nM	0.863 nM	14 nM				
CSc1ccc(CN2C3CC2CN(c2ccc(-c4cc(-c5cnn(C)c5)cn5ncc(C#N)c45)cn2)C3)nc1 [Example 22, 6-(1-methyl-1Hpyrazol-4-yl)-4-(6-(6-((5-(methylthio)pyridin-2-yl)methyl)-3,6-diazabicyclo[3.1.1]heptan-3-yl)pyridin-3-yl)pyrazolo[1,5-a]pyridine-3-carbonitrile]		147 nM	0.242 nM	0.124 nM	12.9 nM				
COCC1=C(C(=O)N2CCN(c3ccc(-c4cc(-c5cnn(C)c5)cn5ncc(C#N)c45)cn3)CC2)CCC1 [Example 12, 4-(6-(4-(2-(methoxymethyl)cyclopent-1-ene-1-carbonyl)piperazin-1-yl)pyridin-3-yl)-6-(1-methyl-1Hpyrazol-4-yl)pyrazolo[1,5-a]pyridine-3-carbonitrile]	14.4 nM	141 nM	1.47 nM	0.65 nM	6.3 nM				
